Test systems include OVCAR-8 ovarian; K-562 leukemia; T-47D breast; HCC-2998 colon; PC-3 prostate; MALME-3M melanoma; M14 melanoma; SW-620 colon; HS 578T breast; HOP-92 NSCLC.
Experiment in all cases: growth of human tumour cells (NCI), 48 h

Structures are written as SMILES. Several values for one entry are separate records, joined by “and”; a condition that tells them apart may be missing. Equal values may be shown once.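 Interpolation was linear, between the two tested concentrations surrounding the appropriate level; five concentrations were tested over 48 hours in 96-well plates. GI50 = concentration required for 50% inhibition of growth. The concentration for full growth arrest is given as TGI.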

Turning to `FC(F)(F)c1ccc(C#Cc2ccccc2C#Cc2ccccc2)cc1`, the GI50 is 59.2 µM in the test with OVCAR-8 ovarian; 34.2 µM in the test with K-562 leukemia; 26.2 µM in the test with T-47D breast; 32.7 µM in the test with HCC-2998 colon; 51.5 µM in the test with PC-3 prostate; 36.3 µM with MALME-3M melanoma. For the same molecule, the figures for the GI50 in the test with M14 melanoma and in the test with SW-620 colon were 44.3 µM and 30.6 µM, respectively. Also, the TGI is more than 100 µM with OVCAR-8 ovarian; 89.5 µM with K-562 leukemia; 60.1 µM in the test with T-47D breast; 53.1 µM in the test on HCC-2998 colon; more than 100 µM in the test with PC-3 prostate; more than 100 µM in the test with MALME-3M melanoma. In addition, the TGI in the test with M14 melanoma and in the test on SW-620 colon was more than 100 µM in each case.

Regarding `Nc1c([N+](=O)[O-])cc2c3c(cccc13)CC2`, the TGI in the test with HS 578T breast, with OVCAR-8 ovarian, with K-562 leukemia, in the test on HOP-92 NSCLC, with T-47D breast and with HCC-2998 colon was more than 100 µM in each case. Further, the TGI in the test on PC-3 prostate, in the test on M14 melanoma and in the test with SW-620 colon was more than 100 µM each time.

Take `S=c1ssc(Oc2ccccc2)c1Cl`: the GI50 in the test with OVCAR-8 ovarian is 29.5 µM; with K-562 leukemia it was 2.68 µM; in the test with HOP-92 NSCLC it was 14.8 µM; with T-47D breast it was 21.5 µM; with HCC-2998 colon, 3.7 µM; with PC-3 prostate, 10.2 µM. Besides, the GI50 with M14 melanoma is 18 µM; in the test with SW-620 colon, 1.9 µM. Also, the TGI with OVCAR-8 ovarian is 62.4 µM; with K-562 leukemia, more than 100 µM; with HOP-92 NSCLC it was 36.2 µM; in the test on T-47D breast, 43 µM; in the test on HCC-2998 colon, 14.7 µM; with PC-3 prostate, 23.9 µM. For the same molecule, the results for the TGI in the test with M14 melanoma and in the test on SW-620 colon were 43.2 µM and 5.24 µM, respectively.

On to `COc1cc(NC(=O)CSc2nc3ccc(C)cc3c(=O)n2Cc2ccccc2)cc(OC)c1OC`, for which the GI50 in the test with HS 578T breast was 3.23 µM; in the test with OVCAR-8 ovarian it was 4.42 µM; with K-562 leukemia it was more than 100 µM; with T-47D breast, 4.01 µM; with HCC-2998 colon, more than 100 µM; with PC-3 prostate, 6.88 µM. In addition, the GI50 with MALME-3M melanoma was 4.07 µM; with M14 melanoma, 8.38 µM; in the test on SW-620 colon, more than 100 µM. Further, the TGI is more than 100 µM in the test on HS 578T breast; more than 100 µM with OVCAR-8 ovarian; more than 100 µM in the test with K-562 leukemia; 66.9 µM in the test on T-47D breast; more than 100 µM in the test with HCC-2998 colon; more than 100 µM in the test on PC-3 prostate. In addition, the values for the TGI with MALME-3M melanoma, in the test on M14 melanoma and in the test with SW-620 colon were 31.3 µM, more than 100 µM and more than 100 µM, respectively.

Take `CC(=O)OCC(=O)[C@@]12OC(C)(C)O[C@@H]1C[C@H]1[C@@H]3CC=C4C[C@@H](O)CC[C@]4(C)[C@H]3CC[C@@]12C`: the TGI in the test on HS 578T breast was 63.4 µM; in the test with OVCAR-8 ovarian it was more than 100 µM; in the test with K-562 leukemia, more than 100 µM; in the test with T-47D breast it was more than 100 µM; in the test on PC-3 prostate, more than 100 µM; with MALME-3M melanoma, more than 100 µM. The TGI in the test with M14 melanoma and with SW-620 colon was more than 100 µM each time.

On to `O=C1C2C(c3ccccc3)NC(c3ccccc3)C1C(c1ccccc1)NC2c1ccccc1` (centres undefined), for which the TGI in the test on HS 578T breast, with OVCAR-8 ovarian, in the test with K-562 leukemia, in the test on HOP-92 NSCLC, with T-47D breast and in the test on PC-3 prostate was more than 100 µM in each case. For the same molecule, the TGI in the test with MALME-3M melanoma, with M14 melanoma and in the test with SW-620 colon was more than 100 µM in each case.

As for `COc1cccc(OCCCN)c1-c1cc(Nc2cnc(C#N)cn2)n[nH]1`, the GI50 in the test with OVCAR-8 ovarian was 0.00591 µM; in the test with K-562 leukemia it was 0.00444 µM; with HOP-92 NSCLC, less than 0.0166 µM; in the test on T-47D breast, 7.91 µM; in the test on HCC-2998 colon, 0.00484 µM; with PC-3 prostate, 2.41 µM. For the same molecule, the GI50 is 0.00276 µM in the test on M14 melanoma; 0.0573 µM and 0.054 µM with SW-620 colon. Besides, the TGI with OVCAR-8 ovarian came to 1.44 µM; in the test on K-562 leukemia, 12.8 µM; in the test on HOP-92 NSCLC it was 8.76 µM; with T-47D breast it was 24 µM; in the test with HCC-2998 colon, 11.2 µM; in the test on PC-3 prostate, 21.5 µM. The figures for the TGI with MALME-3M melanoma, in the test on M14 melanoma and in the test with SW-620 colon were 16.1 µM, 0.0135 µM and 12 µM, respectively.

As for `O=C(O)C1C(C(=O)O)C23CC2(C(=O)O)C2(C(=O)O)CCC3=C3CCCC312` (centres undefined), the TGI with HS 578T breast is 7.8 µM; with OVCAR-8 ovarian it was 64.4 µM; with K-562 leukemia, 95.5 µM; in the test with HOP-92 NSCLC it was 36.5 µM; in the test on T-47D breast, 53.5 µM; in the test with PC-3 prostate, 31.2 µM. Further, the TGI was 15.2 µM with MALME-3M melanoma, more than 100 µM in the test on M14 melanoma and more than 100 µM in the test with SW-620 colon.

In the case of `COc1ccc(/C(=N\O)c2cc(C)c(OC)c(C)c2)cc1O`, the GI50 was 0.0198 µM with HS 578T breast; 0.0352 µM in the test with OVCAR-8 ovarian; 0.41 µM with HOP-92 NSCLC; 0.0279 µM in the test on HCC-2998 colon; less than 0.01 µM in the test on PC-3 prostate; less than 0.01 µM with MALME-3M melanoma. Moreover, the GI50 with M14 melanoma and in the test with SW-620 colon was less than 0.01 µM each time. Further, the TGI in the test on HS 578T breast is more than 100 µM; in the test with OVCAR-8 ovarian, 71.6 µM; with HOP-92 NSCLC it was more than 100 µM; in the test with HCC-2998 colon, more than 100 µM; in the test on PC-3 prostate it was more than 100 µM; with MALME-3M melanoma, more than 100 µM. Also, the TGI in the test on M14 melanoma and in the test with SW-620 colon was more than 100 µM throughout.

Regarding `O=C(c1ccccc1)C(Br)C(Br)c1cccc([N+](=O)[O-])c1` (centres undefined), the GI50 in the test with OVCAR-8 ovarian was 3.35 µM; in the test with HOP-92 NSCLC it was 1.55 µM; in the test with T-47D breast it was 2.13 µM; with HCC-2998 colon, 1.57 µM; in the test on PC-3 prostate, 2.26 µM; with MALME-3M melanoma, 2 µM. Also, the GI50 with M14 melanoma was 1.78 µM; in the test with SW-620 colon it was 0.342 µM. Moreover, the TGI in the test with OVCAR-8 ovarian stood at 12.7 µM; in the test with HOP-92 NSCLC it was 3.89 µM; in the test with T-47D breast it was 5.65 µM; with HCC-2998 colon, 2.95 µM; in the test on PC-3 prostate, 6.84 µM; in the test with MALME-3M melanoma it was 3.84 µM. For the same molecule, the TGI came out at 3.17 µM in the test with M14 melanoma and 1.49 µM in the test on SW-620 colon.

(Values after PubChem BioAssay (NCI).)
